ChEMBL document CHEMBL4665737, “An assay for DNA polymerase β lyase inhibitors that engage the catalytic nucleophile for binding” (Bioorg Med Chem, 2020)
Calls of active or inactive are those of the source. The calls are words filed in the database; no cut-off is given here.

Columns and labels:
[1] = target: DNA polymerase beta (Homo sapiens) (UniProt P06746); test: Binding affinity to human DNA polymerase beta with homo-lysine modification at 72 assessed as inhibition of dRP excision in presence of 32P-end labelled duplex DNA at 25 uM by SDS PAGE
[2] = target: DNA polymerase beta (Homo sapiens) (UniProt P06746); test: Binding affinity to human DNA polymerase beta with methyl-lysine modification at 72 assessed as inhibition of dRP excision in presence of 32P-end labelled duplex DNA at 25 uM by SDS PAGE
[3] = target: DNA polymerase beta (Homo sapiens) (UniProt P06746); test: Binding affinity to wild type human DNA polymerase beta assessed as inhibition of dRP excision in presence of 32P-end labelled duplex DNA at 25 uM by SDS PAGE analysis
[4] = target: DNA polymerase beta (Rattus norvegicus) (UniProt P06766); test: Binding affinity to rat DNA polymerase beta with homo-lysine modification at 72 assessed as inhibition of dRP excision in presence of 32P-end labelled duplex DNA at 50 uM by SDS PAGE
[5] = target: DNA polymerase beta (Rattus norvegicus) (UniProt P06766); test: Binding affinity to rat DNA polymerase beta with methyl-lysine modification at 72 assessed as inhibition of dRP excision in presence of 32P-end labelled duplex DNA at 50 uM by SDS PAGE
[6] = target: DNA polymerase beta (Rattus norvegicus) (UniProt P06766); test: Binding affinity to wild type rat DNA polymerase beta assessed as inhibition of dRP excision in presence of 32P-end labelled duplex DNA at 50 uM by SDS PAGE analysis
[7] = target: DNA polymerase beta (Rattus norvegicus) (UniProt P06766); test: Binding affinity to wild type rat DNA polymerase beta assessed as inhibition of dRP excision in presence of 32P-end labelled duplex DNA at 25 uM by SDS PAGE analysis
[8] = target: DNA polymerase beta (Rattus norvegicus) (UniProt P06766); test: Binding affinity to rat DNA polymerase beta with methyl-lysine modification at 72 assessed as inhibition of dRP excision in presence of 32P-end labelled duplex DNA at 25 uM by SDS PAGE
[9] = target: DNA polymerase beta (Rattus norvegicus) (UniProt P06766); test: Binding affinity to rat DNA polymerase beta with homo-lysine modification at 72 assessed as inhibition of dRP excision in presence of 32P-end labelled duplex DNA at 25 uM by SDS PAGE
[10] = target: DNA polymerase beta (Rattus norvegicus) (UniProt P06766); test: Binding affinity to wild type rat DNA polymerase beta assessed as inhibition of dRP excision in presence of 32P-end labelled duplex DNA at 10 uM by SDS PAGE analysis
[11] = target: DNA polymerase beta (Rattus norvegicus) (UniProt P06766); test: Binding affinity to rat DNA polymerase beta with methyl-lysine modification at 72 assessed as inhibition of dRP excision in presence of 32P-end labelled duplex DNA at 10 uM by SDS PAGE
[12] = target: DNA polymerase beta (Rattus norvegicus) (UniProt P06766); test: Binding affinity to rat DNA polymerase beta with homo-lysine modification at 72 assessed as inhibition of dRP excision in presence of 32P-end labelled duplex DNA at 10 uM by SDS PAGE

SMILES | inhibition [1] | inhibition [2] | inhibition [3] | inhibition [4] | inhibition [5] | inhibition [6] | inhibition [7] | inhibition [8] | inhibition [9] | inhibition [10] | inhibition [11] | inhibition [12]
O=C(O)c1ccc(O)c(O)c1 | Active | Active | Active | 25% | 50% | 50% | – | – | – | – | – | –
CCCCCCCC[C@H]1O[C@H]1CCCCCCCC(=O)O (racemic) | – | – | – | inactive | Active | Active | Active | Active | inactive | – | – | –
CC[C@H](/C=C/[C@@H](C)[C@H]1CC[C@H]2[C@@H]3CC=C4C[C@@H](O)CC[C@]4(C)[C@H]3CC[C@]12C)C(C)C | Active | Active | Active | Active | Active | Active | – | – | – | – | – | –
CCCCCCCCC(O)C(O)CCCCCCCC(=O)O (racemic) | – | – | – | – | – | – | – | – | – | Active | Active | Active
CC[C@H](CC[C@@H](C)[C@H]1CC[C@H]2[C@@H]3CCC4C[C@@H](OC(=O)c5ccccc5)CC[C@]4(C)[C@H]3CC[C@]12C)C(C)C (some centres not stated) | Active | Active | Active | Active | Active | Active | – | – | – | – | – | –
